# Target: T1, mutant CFTR (Homo sapiens, UniProt P13569, DEL508-508)
# T1 construct: expressed in transfected cells
# Assay: Fluorescence (HS-YFP) assay for CFTR activity, corrector assay
# Format: cell-based
# Conditions: CFBE41o- and FRT cells with stable expression of mutant CFTR, 24 h compound treatment
# Outline: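 Corrector activity: 24 h compound treatment of HS-YFP/mutant-CFTR CFBE41o- or FRT cells, followed by 30 min forskolin 20 μM + genistein 50 μM at 37° C. Iodide influx (100 mM final) was tracked as fluorescence quenching, with dF/dt extrapolated by exponential fitting; EC50 values derived.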
# T1 sequence (P13569 with tags, fused parts or gaps DEL508-508): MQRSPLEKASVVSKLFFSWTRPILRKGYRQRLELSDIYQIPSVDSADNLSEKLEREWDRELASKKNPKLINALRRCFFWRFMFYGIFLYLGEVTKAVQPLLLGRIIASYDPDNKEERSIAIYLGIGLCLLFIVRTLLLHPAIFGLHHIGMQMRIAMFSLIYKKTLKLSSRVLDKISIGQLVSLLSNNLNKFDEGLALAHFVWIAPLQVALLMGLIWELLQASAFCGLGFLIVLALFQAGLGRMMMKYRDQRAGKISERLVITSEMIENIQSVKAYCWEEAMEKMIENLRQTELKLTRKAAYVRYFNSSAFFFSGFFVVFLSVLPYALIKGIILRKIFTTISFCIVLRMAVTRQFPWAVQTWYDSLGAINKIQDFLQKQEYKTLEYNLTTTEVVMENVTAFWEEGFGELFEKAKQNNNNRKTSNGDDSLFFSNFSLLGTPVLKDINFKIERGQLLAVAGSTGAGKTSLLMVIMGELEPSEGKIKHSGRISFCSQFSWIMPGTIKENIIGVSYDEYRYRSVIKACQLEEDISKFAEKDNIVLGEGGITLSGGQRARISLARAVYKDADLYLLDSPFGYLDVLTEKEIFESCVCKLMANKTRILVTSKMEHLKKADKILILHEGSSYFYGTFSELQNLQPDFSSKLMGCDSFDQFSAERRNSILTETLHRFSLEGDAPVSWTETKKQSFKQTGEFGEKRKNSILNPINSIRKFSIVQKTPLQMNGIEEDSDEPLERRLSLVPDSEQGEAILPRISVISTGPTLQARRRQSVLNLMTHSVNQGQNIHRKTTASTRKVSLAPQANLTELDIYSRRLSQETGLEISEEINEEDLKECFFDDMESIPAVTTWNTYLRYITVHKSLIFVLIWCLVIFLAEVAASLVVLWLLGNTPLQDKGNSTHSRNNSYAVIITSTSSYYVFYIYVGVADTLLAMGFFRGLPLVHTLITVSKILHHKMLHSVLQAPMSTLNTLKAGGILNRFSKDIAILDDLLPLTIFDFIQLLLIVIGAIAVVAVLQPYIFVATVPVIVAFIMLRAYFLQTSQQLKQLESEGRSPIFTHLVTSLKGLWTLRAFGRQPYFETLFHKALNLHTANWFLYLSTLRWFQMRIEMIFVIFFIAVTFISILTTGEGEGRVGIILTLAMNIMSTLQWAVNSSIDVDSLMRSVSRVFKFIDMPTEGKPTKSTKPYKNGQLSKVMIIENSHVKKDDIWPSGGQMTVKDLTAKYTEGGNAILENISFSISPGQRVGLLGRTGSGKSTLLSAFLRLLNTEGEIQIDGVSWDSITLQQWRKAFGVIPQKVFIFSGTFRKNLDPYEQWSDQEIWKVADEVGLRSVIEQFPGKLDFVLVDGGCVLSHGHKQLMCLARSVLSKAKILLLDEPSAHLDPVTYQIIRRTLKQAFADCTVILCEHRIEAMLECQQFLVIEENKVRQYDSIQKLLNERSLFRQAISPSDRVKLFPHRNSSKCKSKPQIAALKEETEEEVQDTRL
row,EC50 [nM],Compound
1,< 1000,"Cc1c(Cl)c(C(F)(F)F)nn1-c1cc(C(=O)N(C)c2ccc3c(c2)OCO3)ccn1 [compound 171, N-(1,3-Benzodioxol-5-yl)-2-[4-chloro-5-methyl-3-(trifluoromethyl)pyrazol-1-yl]-N-methyl-pyridine-4-carboxamide]"
2,> 2000,"Cc1nc2ccc(NC(=O)c3cccc(-n4nc(C(F)(F)F)c(Cl)c4COc4ccc(C(=O)OC(C)(C)C)cc4)c3)cn2n1 [compound 173, tert-Butyl 4-[[4-chloro-2-[3-[(2-methyl-[1,2,4]triazolo[1,5-a]pyridin-6-yl)carbamoyl]phenyl]-5-(trifluoromethyl)pyrazol-3-yl]methoxy]benzoate]"
3,> 2000,"O=C(O)c1ccc(OCc2c(Cl)c(C(F)(F)F)nn2-c2cccc(C(=O)Nc3ccc4c(c3)OC(F)(F)O4)c2)cc1 [compound 174, 4-[[4-Chloro-2-[3-[(2,2-difluoro-1,3-benzodioxol-5-yl)carbamoyl]phenyl]-5-(trifluoromethyl)pyrazol-3-yl]methoxy] benzoic acid]"
4,< 1000,"CN(C(=O)c1cccc(-n2nc(C(F)(F)F)c(Cl)c2COc2ccc(C(=O)OC(C)(C)C)cc2)c1)c1ccc2c(c1)OC(F)(F)O2 [compound 175, Tert-butyl 4-[[4-chloro-2-[3-[(2,2-difluoro-1,3-benzodioxol-5-yl)-methyl-carbamoyl]phenyl]-5-(trifluoromethyl)pyrazol-3-yl]methoxy]benzoate]"
5,< 1000,"CN(C(=O)c1cccc(-n2nc(C(F)(F)F)cc2-c2ccccc2C(F)(F)F)c1)c1ccc2c(c1)OCO2 [compound 176, N-(1,3-Benzodioxol-5-yl)-N-methyl-3-[3-(trifluoromethyl)-5-[2-(trifluoromethyl)phenyl]pyrazol-1-yl]benzamide]"
6,< 1000,"CN(C(=O)c1cccc(-n2nc(C(F)(F)F)c(Cl)c2COc2ccc(C(=O)O)cc2)c1)c1ccc2c(c1)OC(F)(F)O2 [compound 177, 4-[[4-chloro-2-[3-[(2,2-difluoro-1,3-benzodioxol-5-yl)-methyl-carbamoyl]phenyl]-5-(trifluoromethyl)pyrazol-3-yl]methoxy]benzoic acid]"
7,> 2000,"Cc1c(Cl)c(C(F)(F)F)nn1-c1cccc(C(=O)N(C)c2cc3c(cc2C(=O)O)OCO3)c1 [compound 179, 6-[[3-[4-chloro-5-methyl-3-(trifluoromethyl)pyrazol-1-yl]benzoyl]-methyl-amino]-1,3-benzodioxole-5-carboxylic acid]"
8,< 1000,"CN(C(=O)c1cccc(-n2nc(C(F)(F)F)c(C=O)c2Oc2ccccc2)c1)c1ccc2c(c1)OCO2 [compound 180, N-(1,3-Benzodioxol-5-yl)-3-[4-formyl-5-phenoxy-3-(trifluoromethyl)pyrazol-1-yl]-N-methyl-benzamide]"
9,< 1000,"[2H]C([2H])([2H])N(C(=O)c1cccc(-n2nc(C(F)(F)F)c(Cl)c2COc2ccc(C(=O)OC(C)(C)C)cc2)c1)c1ccc2c(c1)OC(F)(F)O2 [compound 181, Tert-butyl 4-[[4-chloro-2-[3-[(2,2-difluoro-1,3-benzodioxol-5-yl)-(trideuteriomethyl)carbamoyl]phenyl]-5-(trifluoromethyl)pyrazol-3-yl]methoxy]benzoate]"
10,< 1000,"[2H]C([2H])([2H])N(C(=O)c1cccc(-n2nc(C(F)(F)F)c(Cl)c2COc2ccc(C(=O)O)cc2)c1)c1ccc2c(c1)OC(F)(F)O2 [compound 182, 4-[[4-Chloro-2-[3-[(2,2-difluoro-1,3-benzodioxol-5-yl)-(trideuteriomethyl)carbamoyl]phenyl]-5-(trifluoromethyl)pyrazol-3-yl]methoxy]benzoic acid]"
11,< 1000,"COc1ccccc1-c1c(Cl)c(C(F)(F)F)nn1-c1cccc(C(=O)N(C)c2ccc3c(c2)OCO3)c1 [compound 183, N-(1,3-Benzodioxol-5-yl)-3-[4-chloro-5-(2-methoxyphenyl)-3-(trifluoromethyl)pyrazol-1-yl]-N-methyl-benzamide]"
